Measurements from patent US20120148510A1, “Compositions and Methods for Improving the Appearance of Facial Pores” (priority 2010, published 2012).
Several values for one entry are separate records, joined by “and”; a condition that tells them apart may be missing. Identical values can stand only once.

Columns and labels:
IL-1 beta = assay: IL-1 inhibition assay (ICAM-1 promoter/luciferase reporter in ECV304 cells); type: cell-based, Human; settings: 5% concentration of hexyldecanol diluted to 0.05%; four replicates; 10 U/ml IL-1 beta, 4 hours
Procedure: A. IL-1 Inhibition Assay Protocol
One vial of Human ECV304 cells stably transfected with human ICAM-1 promoter/luciferase reporter construct (pGL3 basic plasmid) and CMV-βgal/RSV-neo plasmid DNA (clone E1.3-22) is placed in a 75 cm flask with 15 ml of complete maintenance media defined as follows: M199 (Gibco, cat #11150-059, 1× liquid, 500 ml containing Earle's salts, Na bicarbonate, and L-glutamine), 10% FBS (certified, heat-inactivated from Gibco, cat #10082-147), 10 ug/ml gentamicin (Gibco, cat #15710-015—10 mg/ml soln (1000×), and 250 μg/ml geneticin antibiotic (active G418 from Gibco, cat 10131-035-50 mg/ml soln).
When cells are 85-90% confluent remove media. Dilute (10×) trypsin-EDTA (Gibco cat #15400-039) to (1×) with HBSS and add 3 ml of (1×) trypsin-EDTA to flask and rinse. Remove trypsin and add a fresh 3 ml/flask and incubate 3-4 min. Strike end of flask to detach cells, and then add 6 ml of complete maintenance medium thoroughly washing the flask and place liquid in a conical tube. Then rinse each flask with an additional 3 ml of maintenance media. Spin tube at 200×g (approx 900 rpm for centrifuge in 3N066B) for 7 minutes. Aspirate supernatant and resuspend cells in 10 ml of maintenance media. Place 10 ul of cell suspension into a hemocytometer and count cells in 5 squares. Use following equation—total# of cells counted ×dilution×104/# of squares counted=cells/ml. […]

[1] = system: HAS-2 gene (Hyaluronic Acid Synthase-2 gene); assay: Hyaluronic Acid (HA) Synthase expression, keratinocyte culture, Affymetrix GeneChip microarray; type: cell-based; settings: 10 micro molar hexyldecanol; human telomerized keratinocytes; 6 hours exposure; six GeneChips; p-value=0.0366
Procedure: B. Hyaluronic Acid (HA) Synthase Expression
Individual experiments (referred to as batches) are generally comprised of 60 Affymetrix GeneChips® (referred to as “instances”) containing 6 vehicle control samples, 2 positive control samples and 52 individual test material samples. Duplication of test materials is performed across batches. In vitro testing is performed in 6-well plates to provide sufficient RNA for GeneChip® analysis (2-4 ug total RNA yield/well). Human telomerized keratinocytes are grown in EpiLife® media with 1× Human Keratinocyte Growth Supplement (Invitrogen) on collagen I coated cell culture flasks and plates (Becton Dickinson). Cells are seeded into 6-well plates at 20,000 cells/cm2 24 hours before chemical exposure. At t=−24 hours cells are trypsinized from T-75 flasks and plated into 6-well plates in basal growth medium. At t=0 media is removed and replaced with the appropriate dosing solution as per the experimental design. Dosing solutions are prepared the previous day in sterile 4 ml Falcon snap cap tubes. After 6 hours of chemical exposure cells are viewed and imaged. […]
2. Transcriptional Screening—RNA Analyzed with Gene Chips […]
Data quality was determined using a variety of statistical measures, including t-tests, scatter biplots, and principal components analysis, depending upon the source and character of the data. […]

facial pores = assay: 9 week in vivo split face study, Pore Area Fraction by image analysis; parameters: species or system human; settings: vehicle + 5% Hexyldecanol, twice daily topical on face, 8 weeks, upper cheek area, FIG. 1
Procedure: A 9 week in vivo study was conducted using a round robin, vehicle controlled, split face design including a 1 week normalization period with 330 subjects.
Treatment Regimen—The regimen begins with a one week washout period. Each morning the subject is to wash their face with a suitable cleanser (e.g., Olay Natural Science Deep Purify Cleanser, available from The Procter & Gamble Company, Cincinnati, Ohio), gently dry with a towel, apply a stock moisturizer (e.g., Vehicle as described in Table 2 with 3% glycerine, no panthenol, and 0.3% disodium EDTA) to the appropriate side of the face, wait 5 minutes, and then apply a UV blocking lotion (e.g., Olay Complete All Day Moisturizing Lotion SPF 15, available from The Procter & Gamble Company, Cincinnati, Ohio). […]
Images of the facial treatment sites are captured at baseline (week 0), and after 4 and 8 weeks of treatment and analyzed for changes to facial pores. […]
The region of interest (ROI), in this case the upper cheek area, was marked manually based on 12 predefined facial landmarks around the cheek—for example, corners of the eye, bridge of the nose, corners of the mouth. The degree of facial pores in the ROI were quantified objectively using image analysis algorithms based on an Optimus software platform. […]

## CCCCCCCCC(CO)CCCCCC (stereo not drawn) [Hexyldecanol, 2-hexyldecan-1-ol]
IL-1 beta
  reduction of IL-1 stimulatory activity: 24% and 18% (2×) and 21%
[1]
  HAS-2 gene transcriptional expression level, average fold change: 1.336 fold change
Facial pores
  reduction of Pore Area Fraction versus vehicle control: significantly (p<=0.10) reducing Pore Area Fraction better than the control
